From patent US6610516B1, “Cell culture process” (Genentech, Inc., priority 1999, dated 2003)

Columns and labels:
[1] = test system: t-PA site occupancy at Asn-184; experiment: Type I/Type II t-PA assay (RP-HPLC) of supernatant from rht-PA-producing CHO cell cultures; assay type: cell-based, Chinese Hamster; details: for t-PA site-occupancy, effect of further butyrate increase: 1.5 mM butyrate; for t-PA site occupancy compared to control with no cell-cycle inhibitor: 3-4 days, quinidine 90 μM, thymidine 250 μg/mL at inoculation (FIG. 9); for Decrease of t-PA site occupancy at 500 µM: Cricetulus griseus, CHO, 0.5 mM each; for Decrease of t-PA site occupancy at 500 µM / t-PA site-occupancy, effect of nucleotide sugar precursors: days 4-6 (FIG. 12); for t-PA site-occupancy, effect of nucleotide sugar precursors: increased availability; for Increase of t-PA site-occupancy: 1, 10 or 100 nM hormone, day 7 (FIG. 13)
Method: Type I/Type II t-PA assay:
1. Thaw cell culture supernatant sample (If whole broth, spin out cells in centrifuge.)
2. Add 2 μl freshly thawed plasminogen to 400 μl of sample.
3. Incubate at 37° C. for 60 minutes.
4. Add 20 μl freshly-thawed 1 M DTT and 400 μl 8 M guanidine-HCl/50 mM TRIS/3.2 mM EDTA solution.
5. Incubate at 37° C. for 15 minutes.
6. Transfer to vial and load 250 μl for assay on HP 1090™ HPLC using the following conditions:
ZORBAX™ C8 column at 40° C.;
Monitoring of eluents by fluorescence (excitation at 275 nm, emission at 340 nm);
Running each sample with the following 70-minute method where eluent A is 0.1% trifluoroacetic acid (TFA) in water and eluent B is 0.1% TFA in acetonitrile:
5 to 35 min.—a linear gradient from 75% A to 60% A
45 min. to 70 min.—75% A to re-equilibrate the column
Type I/Type II fragments elute after approximately 25 minutes, and peak areas are integrated to determine relative quantities.
Recombinant ht-PA-producing CHO cells were carried in spinner flasks passaged every 3 or 4 days (at a density of 0.1% packed cell volume (PCV)) in selective medium (PS-20 basal medium supplemented with […] methotrexate, 10 mg/L recombinant human insulin (rh-insulin), 0.1 ml/L trace elements, and 0.05 ml/L lipid-ethanol). Sufficient culture was removed to seed 15 ml of medium at 0.2% PCV, and placed in a 50 ml sterile Falcon tube. The culture was centrifuged for 10 minutes at 700-1000 rpm and the supernatant was poured off. Upon addition of 15 ml of fresh selective medium, the culture was agitated gently to resuspend cells. Five ml of culture was placed in three T-25 flasks (25 cm^2 T-flasks). The caps were left loosened to allow equilibration with incubator atmosphere and the flasks were placed in a 33° C. or 31° C. incubator with 5% carbon dioxide. After 5 to 8 days of incubation, the cells were counted using a hemacytometer and/or by checking packed cell volume, and viability was checked using trypan blue. The culture was removed from the flasks, centrifuged for 10 minutes at 2000-2200 rpm, and the supernatant was assayed for rht-PA glycosylation. Alternatively to the T-25 flasks, the cells were cultured using 60-mm cell culture plates in triplicates.
The mini-fermentor experiments were performed under standard t-PA production conditions in fed-batch mode as noted herein in 5-liter stirred tank bioreactors (Applikon, Foster City, Calif.). The temperature was shifted to 33° C. or 31° C. on day 2 of the production phase.
(§1) The quantity of cells needed for a 0.2% packed cell volume seed density was centrifuged at approximately 700×g for 10 minutes, and resuspended in 25 cm^2 T-flasks in the appropriate fresh medium for each test case. The T-flasks were set up in triplicate with 5 mL in each flask and incubated for 3 to 4 days at 37° C. and 95% air 5% CO2. Sodium butyrate was added to a concentration of 0.375 mM, 0.75 mM, or 1.5 mM at the time of inoculation for the 25 cm^2 T-flasks. Cells were also cultured in spinner flasks at volumes of 100 ml with similar butyrate concentrations to the T-flask cases. For fermentor experiments, butyrate was added on the second day of the experiments. T-flask cultures were also carried out at 33° C. and 37° C. with no butyrate additions. […] T-PA site-occupancy was analyzed using the method of Example 1.
(§2) Cells were cultured as for the sodium butyrate experiment described in Example 2. Thymidine was dissolved in water and sterile filtered for a 33-36× stock solution. […] T-PA site-occupancy was analyzed using the method of Example 1.
All experiments were done in 60-mm culture dishes using the procedure described in Example 1 except that a Mn salt, Fe salt, nucleotide sugar precursor, or hormone was added to the growth medium during the growth phase, with Mn or Fe salt or nucleotide sugar precursor added on day 1.

CHO cells = experiment: Cell-cycle analysis (propidium iodide flow cytometry) of rht-PA-producing CHO cell cultures; assay type: cell-based, Chinese Hamster; details: T-flasks, 37° C., thymidine 250 μg/mL; for Cells in G0/G1 phase: 3-4 days, added at inoculation: quinidine 90 μM, control 53.91%; for Cells in S phase: control 34.37%
Description: As used herein, a “cell-cycle inhibitor that blocks cells in the G0/G1 phase of growth” is a molecule that causes cells to accumulate in the G0/G1 phase of growth. This can be determined by cell cycle analysis, i.e., uniform suspensions of nuclei are stained with propidium iodide (PI) using the detergent-trypsin method of Vindelov et al., Cytometry, 3: 323-327 (1983) to determine relative cellular DNA content by flow cytometric analysis. Events are gated using doublet discrimination to exclude doublets, and the data are modeled using ModFit LT Cell Cycle Analysis™ software (Verity Software House).
as §1, §2

fibrin = details: in vitro; cited from earlier work

Question: For ferric citrate, which “Increase of t-PA site occupancy” value ([1]; 10-100 μM ferric citrate, 60-mm dishes, 37° C., days 4-6 (FIG. 11)) is on record?
Answer: The value was “up to 4%”.

Question: For `CCCC(=O)[O-].[Na+]` [sodium butyrate], which “Increase of Type I content compared to no butyrate” value ([1]; 0.75 mM butyrate, 60-mm culture plates (FIG. 6)) is on record?
Answer: Its value is “about 1%”.

Question: What about the “t-PA site-occupancy, effect of further butyrate increase” value ([1]; 31° C., 60-mm culture plates (FIG. 6)) of the same molecule?
Answer: The value was “increased it”.

Question: And the “t-PA site-occupancy, effect of further butyrate increase” value ([1]; 37° C. and 33° C., 60-mm culture plates (FIG. 6))?
Answer: Its value is “lowered site-occupancy”.

Question: And the “t-PA site-occupancy, effect of butyrate” value ([1]; 0.375 to 1.5 mM at inoculation, T-flasks, 37° C. (FIG. 5))?
Answer: The value was “increased t-PA site-occupancy”.

Question: What about the “Type I content, effect of increasing butyrate from 0.75 to 1.5 mM” value ([1]; 5-liter bioreactors, days 5-7, 37° C. and 33° C. (FIG. 7)) of the same molecule?
Answer: Its value is “decreased the Type I content”.

Question: What does the source list for `C=C[C@H]1C[N@@]2CC[C@H]1C[C@@H]2[C@@H](O)c1ccnc2ccc(OC)cc12` [Quinidine, quinidine]?
Answer: Cells in G0/G1 phase (CHO cells): 67.34% at 84.65; Cells in G0/G1 phase (CHO cells; listed as quinidine): 67%; Cells in S phase (CHO cells; quinidine 90 μM): 24.11%; t-PA site occupancy compared to control with no cell-cycle inhibitor ([1]; T-flasks, 37° C.): increased site occupancy

Question: For “t-PA: human tissue-type plasminogen activator, recombinant, produced in CHO cells; mixture of Type I and Type II glycoforms”, which “Kd of binding to fibrin” value (fibrin) is on record?
Answer: The value was “in the μM range”.

Question: Which Decrease of t-PA site occupancy at 500 µM ([1]; 60-mm dishes, 37° C.) does the source give for `Nc1nc2c(ncn2[C@@H]2O[C@H](CO)[C@@H](O)[C@H]2O)c(=O)[nH]1` [guanosine] here?
Answer: The Decrease of t-PA site occupancy at 500 µM was about 2%.

Question: For `O=c1[nH]cnc2nc[nH]c12` [hypoxanthine], which “t-PA site-occupancy, effect of nucleotide sugar precursors” value ([1]; 60-mm dishes, 37° C.) is on record?
Answer: The value was “did not improve site-occupancy”.

Question: For `O=c1ccn([C@@H]2O[C@H](CO)[C@@H](O)[C@H]2O)c(=O)[nH]1` [uridine], which Decrease of t-PA site occupancy at 500 µM ([1]; 60-mm dishes, 37° C.) is on record?
Answer: The Decrease of t-PA site occupancy at 500 µM was about 2%.

Question: For `N[C@@H](Cc1cc(I)c(Oc2ccc(O)c(I)c2)c(I)c1)C(=O)O` [tri-iodothyronine], which “Increase of t-PA site-occupancy” value ([1]; 60-mm dishes, 37° C.) is on record?
Answer: The value was “about 2%”.

Question: With `[Cl][Mn][Cl]` [manganese, MnCl2] as the molecule, how does the “Increase of t-PA Type I content (site-occupancy) over 3 nM control” value ([1]; MnCl2 10 nM-100 μM, 60-mm dishes, 37° C., days 4-6 (FIG. 10)) read?
Answer: Its value is “about 2.5%”.

Question: Which “Cells in G0/G1 phase” value (CHO cells) does the source give for `Cc1cn([C@H]2C[C@H](O)[C@@H](CO)O2)c(=O)[nH]c1=O` [Thymidine, thymidine] here?
Answer: The value was 32.58% at 84.60.

Question: What about the “Cells in G0/G1 phase” value (CHO cells; listed as thymidine) of the same molecule?
Answer: The value was 33%.

Question: What about the “Cells in G2-M phase” value (CHO cells; quinidine 90 μM, control 11.72%) of the same molecule?
Answer: The value was 10.09% at 165.36.

Question: What about the “Cells in S phase” value (CHO cells; quinidine 90 μM) of the same molecule?
Answer: Its value is 57.33%.

Question: And the “t-PA site occupancy compared to control with no cell-cycle inhibitor” value ([1]; T-flasks, 37° C.)?
Answer: Its value is “decreased site occupancy”.

Question: What about the “t-PA site-occupancy, effect of nucleotide sugar precursors” value ([1]; 60-mm dishes, 37° C.) of the same molecule?
Answer: Its value is “did not improve site-occupancy”.

Question: With `N[C@@H](Cc1cc(I)c(Oc2cc(I)c(O)c(I)c2)c(I)c1)C(=O)O` [thyroxine] as the molecule, how does the “Increase of t-PA site-occupancy” value ([1]; 60-mm dishes, 37° C.) read?
Answer: The value was “about 2%”.

Question: With `NCC(=O)O` [glycine] as the molecule, how does the “t-PA site-occupancy, effect of nucleotide sugar precursors” value ([1]; 60-mm dishes, 37° C.) read?
Answer: The value was “did not improve site-occupancy”.
